Results reported in US20070141661A1, “Cell extract for high-functioned cell-free protein synthesis and method of preparing the extract” (priority 2003, published 2007).

What was measured:
ATP in reaction solution = experiment: Temporal change of ATP concentration during protein synthesis reaction (cellulose thin layer chromatography, UV 260 nm); type: biochemical, wheat; details: for Concentration of ATP in system after adding sugar: 0.5 mM, within an hour after reaction, data not shown
Procedure: Next, to study the relation between decrease in concentration of ATP and the inhibition and destabilization mechanism of protein synthesis reaction, temporal changes of concentration of ATP under incubation was measured in the present and absence of glucose. Experiment was conducted on chromatography using a cellulose thin layer plate (Avicel: purchased from Funakoshi Co., Ltd) and a developing solvent of isobutyric acid:0.5 M ammonia (5:3). Using a synthesis system prepared with an extract solution treated through Amicon ultramembrane six times, protein synthesis reaction was conducted with or without adding glucose (1 mM), and to samples fractionated with time, an equivalent amount of cold ethanol was added, then supernatants obtained from centrifugation at 10,000×g were used to fractionate nucleotides on a thin layer plate. Using standard nucleotides from a conventional method as a fractionation marker, ATP was extracted from fractions, which was scraped out from fluorescent blots visualized with irradiation of ultraviolet ray, and the values of ultraviolet absorption at 260 nm were measured, thereby temporary changes of concentration of ATP in a reaction solution were determined. In an experiment where glucose was not added, as reaction proceeded, the concentration of ATP in the reaction solution was decreased (large ● in FIG. 3B) and in three hours after the reaction, decreased to around 60%. Kinetics of this decrease in concentration of ATP is well consistent with a decrease in the concentration of glucose (● in FIG. 3A). […] Though data are not shown, when protein synthesis reaction was conducted using an extract solution of 25 OD 260 nm, a decrease in the concentration of ATP was hardly shown until four hours after reaction, and along with it, the protein synthesis reaction was sustained linearly almost for four hours.

[1] = system: wheat embryo cell-free protein synthesis; experiment: Wheat embryo cell-free protein synthesis, batch method, 14C-leucine incorporation with DHFR mRNA; type: biochemical; details: for Effect on protein synthesis when added back in an equivalent amount to highly functionalized protein synthesis solution: filtrate or components isolated from filtrate, FIG. 1B/2B; for Time until protein synthesis reaction terminated after adding back: filtrate or filtrate-derived component added in equivalent amount; for Effect of standard sugar on protein synthesis: final concentration 0.5 mM, FIG. 2C; for Inhibition of protein synthesis, nucleotide added alone: 0.5 mM AMP or 0.25 mM GMP alone, not shown in figures
Procedure: To an embryo extract solution, components necessary for translation were added and adjusted to prepare a translation reaction solution (30 mM HEPES-KOH, pH7.8, 100 mM potassium acetate, 2.7 mM magnesium acetate, 1.2 mM ATP, 0.25 mM GTP, 0.4 mM spermidine, 16 mM phosphocreatine, 40 μg/ml creatine kinase, 4 mM dithiothreitol, each 0.3 mM 19 kinds of leucine-lacking L-amino acids, and 0.005% sodium azide). The concentration of the embryo extract solution was 40 OD 260 nm per 1 ml of translation reaction solution). To this translation reaction solution, mRNA encoding dihydrofolate reductase (DHFR) (0.32 mg/ml) and ^14C-leucine were added, and protein synthesis was conducted at 26° C. through a batch method. The amount of synthesized protein was determined by measuring radioactivity of ^14C-labeled leucine incorporated into an acid-insoluble fraction as follows: a 3MM Whatman filter was blotted with […] of the reaction solution, and the filter was dipped into an ice-cold 10% TCA (trichloroacetic acid) for an hour, and then boiled in 5% TCA solution for 10 minutes. This filter was recovered and from which TCA and water were removed using ethanol and ether (50:50 vol), dried, and then radioactivity incorporated into a heat-TCA-insoluble fraction was measured by a liquid scintillation counter (toluene scintillator).
Using these embryo extracts, following the method described in Example 1, and under a condition where the concentration of extract solution was 40 OD 260 nm, protein synthesis was conducted and their synthesis activities were compared. The activities of protein synthesis were determined by measuring radioactivities of ^14C/5 μL reaction solution, wherein ^14C had been incorporated into a heat-acid-insoluble fraction after a three hour-long reaction. As gelfiltration operation proceeded, the concentration of glucose in an extract solution was decreased, and completely corresponding to that, the activity of protein synthesis was increased, and simultaneously an extremely stabilized reaction solution for protein synthesis was produced.

[2] = system: wheat embryo cell-free protein synthesis; experiment: Stability of protein synthesis activity after 3 h preincubation at 26° C. without mRNA, then solution exchange; type: biochemical; details: 0.5 mM, no mRNA or 14C-leucine during incubation, FIG. 2C
Procedure: Next, destabilization of protein synthesis was further examined. Namely, samples obtained before and after Amicon ultra-centrifugal filtration as described above (but mRNA and ^14C-leucine had not been contained), were incubated for three hours at 26° C. (hereinafter, described as preincubation), and then both reaction solutions were respectively passed through Sephadex G25 spin column which had been equilibrated with a translation solution (containing amino acids, energy sources, various ions and buffer) for changing to a fresh translation solution, and after that, mRNA and ^14C-leucine were added to measure the activity of protein synthesis.
Next, to confirm the destabilization phenomena of protein synthesis system resulting from the addition glucose and preincubation, the system was incubated in the presence of 0.5 mM glucose (the system contained neither mRNA or ^14C-leucine) and the stability was examined in the same manner as explained in FIG. 1B.

`OC[C@H]1O[C@@](CO)(O[C@H]2O[C@H](CO)[C@@H](O)[C@H](O)[C@H]2O)[C@@H](O)[C@@H]1O` [sucrose] was tested, and the “Concentration of ATP in system after adding sugar” value (“Concentration of ATP in system” for short) (ATP in reaction solution) was “below the detection limit”, the “Effect on protein synthesis when added back in an equivalent amount to highly functionalized protein synthesis solution” value (“Effect on protein synthesis” for short) [1] was “strong inhibitory and destabilization effects” and the “Time until protein synthesis reaction terminated after adding back” value [1] was “two”. The “Effect of standard sugar on protein synthesis” value (“Effect of standard sugar” below) [1] was “strong protein synthesis inhibitory effects”.

In the case of `O=C[C@H](O)[C@@H](O)[C@H](O)[C@H](O)CO` [glucose, D-glucose], the “ATP in the reaction solution after adding sugar” value (ATP in reaction solution; 1 mM added, in an hour, FIG. 3B) was “almost all ATP in the reaction solution was consumed”, the “Protein synthesis capacity after preincubation in the presence of sugar” value [2] was “irreversibly inactivates a protein synthesis capacity” and the “Effect on protein synthesis” value [1] was “strong inhibitory and destabilization effects”. The “Time until protein synthesis reaction terminated after adding back” value [1] was “two” and the “Effect of standard sugar” value [1] was “strong protein synthesis inhibitory effects”.

With `Nc1nc2c(ncn2[C@@H]2O[C@H](COP(=O)(O)O)[C@@H](O)[C@H]2O)c(=O)[nH]1` [GMP] the “Inhibition of protein synthesis, nucleotide added alone” value [1] was “inhibition of protein synthesis was not exhibited”.

For `C=C(OP(=O)(O)O)C(=O)O` [Phosphoenolpyruvic acid], the “Effect of standard sugar” value [1] was “no inhibitory effects on protein synthesis”.

`Nc1ncnc2c1ncn2[C@@H]1O[C@H](COP(=O)(O)O)[C@@H](O)[C@H]1O` [AMP] was tested, and the “Inhibition of protein synthesis, nucleotide added alone” value [1] was “inhibition of protein synthesis was not exhibited”.

For `O=C(CO)[C@@H](O)[C@H](O)[C@H](O)CO` [fructose], the “Concentration of ATP in system” value (ATP in reaction solution) was “below the detection limit” and the “Effect of standard sugar” value [1] was “strong protein synthesis inhibitory effects”.

With `OC[C@H]1O[C@H](OC[C@H]2O[C@H](O[C@]3(CO)O[C@H](CO)[C@@H](O)[C@@H]3O)[C@H](O)[C@@H](O)[C@@H]2O)[C@H](O)[C@@H](O)[C@H]1O` [raffinose] the “Effect on protein synthesis” value [1] was “did not show inhibitory effects”.

`O=C[C@@H](O)[C@H](O)[C@@H](O)[C@@H](O)CO` [L-glucose] was tested, and the “ATP remained after adding sugar” value (ATP in reaction solution; 1 mM added, FIG. 3B) was roughly 50% and the “Effect of standard sugar” value [1] was “no inhibitory effects”.

`O=C[C@H](O)[C@@H](O)[C@@H](O)[C@H](O)CO` [galactose] was tested, and the “Concentration of ATP in system” value (ATP in reaction solution) was “below the detection limit” and the “Effect of standard sugar” value [1] was “strong protein synthesis inhibitory effects”.

With `O=C[C@H](O)[C@@H](O)[C@H](O)[C@H](O)COP(=O)(O)O` [glucose-6-phosphate] the “Effect of standard sugar” value [1] was “strong protein synthesis inhibitory effects”.

In the case of `CC(=O)C(=O)O` [pyruvic acid], the “Effect of standard sugar” value [1] was “no inhibitory effects on protein synthesis”.
